Source: patent US10760110B2, “Antibiotic testing and screening system” (priority 2017, dated 2020)
Read-outs that look alike come from different tables or passages of the source.

System: K. pneumoniae NVT1001 strains with ESBL or AmpC β-lactamase plasmids
Assay: Etest MIC of β-lactams, OmpK35/36 loss, ΔramR and/or extended-spectrum β-lactamase and AmpC β-lactamase (Table 8)
Type: cell-based, Klebsiella pneumoniae
Conditions: Klebsiella pneumoniae
Method: DNA fragments of the resistance genes along with their flanking regions were amplified from clinical plasmids via PCR with specific primer pairs. The resulting PCR fragments were digested and then cloned into the plasmid pACYC177 or pACYC184. The resulting plasmids were then transformed into K. pneumoniae strain NVT1001 via electroporation. The recombinant bacteria were plated onto LB agar plates containing kanamycin (50 mg/L) or chloramphenicol (50 mg/L), and the presence of the cloned gene was confirmed via PCR and DNA sequencing.
The MICs of antibiotics were determined using the Etest (Biodisk AB, Sweden) according to the manufacturer's instructions. The MICs from the Etest, which fall between standard two-fold dilutions, were rounded up to the next highest two-fold value. The MICs of ceftazidime and cefotaxime against K. pneumoniae NVT1001 harbouring the pACYC177 plasmid with blaOXA-48 were further determined using a broth microdilution test according to the recommendations of the CLSI,^25 and the results were interpreted according to the breakpoints established by the CLSI in 2017.^25 Meanwhile, due to the lack of CLSI breakpoints in 2016 and 2017, the results for cephalothin were interpreted according to the breakpoints established by the CLSI in 2015,^26 and the results for moxifloxacin were interpreted according to the breakpoints established by the EUCAST in 2017.^27

[1] = CMY-2 on pACYC177, WT (NVT1001), read-out: MIC
[2] = CMY-2 on pACYC177, Δ35 (ΔompK35 mutant)
[3] = CMY-2 on pACYC177, Δ35/36 (ΔompK35/36 mutant)
[4] = CMY-2 on pACYC177, Δ36 (ΔompK36 mutant)
[5] = CMY-2 on pACYC177, ΔramR mutant
[6] = CMY-2 on pACYC177, ΔramRΔ35 (ΔramRΔompK35 mutant)
[7] = CMY-2 on pACYC177, ΔramRΔ35/36 (ΔramRΔompK35/36 mutant)
[8] = CMY-2 on pACYC177, ΔramRΔ36 (ΔramRΔompK36 mutant)
[9] = CTX-M-14 on pACYC177, WT (NVT1001), read-out: MIC
[10] = CTX-M-14 on pACYC177, Δ35 (ΔompK35 mutant)
[11] = CTX-M-14 on pACYC177, Δ35/36 (ΔompK35/36 mutant)
[12] = CTX-M-14 on pACYC177, Δ36 (ΔompK36 mutant)
[13] = CTX-M-14 on pACYC177, ΔramR mutant
[14] = CTX-M-14 on pACYC177, ΔramRΔ35 (ΔramRΔompK35 mutant)
[15] = CTX-M-14 on pACYC177, ΔramRΔ35/36 (ΔramRΔompK35/36 mutant)
[16] = CTX-M-14 on pACYC177, ΔramRΔ36 (ΔramRΔompK36 mutant)
[17] = CTX-M-15 on pACYC177, WT (NVT1001), read-out: MIC
[18] = CTX-M-15 on pACYC177, Δ35 (ΔompK35 mutant)
[19] = CTX-M-15 on pACYC177, Δ35/36 (ΔompK35/36 mutant)
[20] = CTX-M-15 on pACYC177, Δ36 (ΔompK36 mutant)
[21] = CTX-M-15 on pACYC177, ΔramR mutant
[22] = CTX-M-15 on pACYC177, ΔramRΔ35 (ΔramRΔompK35 mutant)
[23] = CTX-M-15 on pACYC177, ΔramRΔ35/36 (ΔramRΔompK35/36 mutant)
[24] = CTX-M-15 on pACYC177, ΔramRΔ36 (ΔramRΔompK36 mutant)
[25] = DHA-1-AmpR on pACYC177, WT (NVT1001), read-out: MIC
[26] = DHA-1-AmpR on pACYC177, Δ35 (ΔompK35 mutant)
[27] = DHA-1-AmpR on pACYC177, Δ35/36 (ΔompK35/36 mutant)
[28] = DHA-1-AmpR on pACYC177, Δ36 (ΔompK36 mutant)
[29] = DHA-1-AmpR on pACYC177, ΔramR mutant
[30] = DHA-1-AmpR on pACYC177, ΔramRΔ35 (ΔramRΔompK35 mutant)
[31] = DHA-1-AmpR on pACYC177, ΔramRΔ35/36 (ΔramRΔompK35/36 mutant)
[32] = DHA-1-AmpR on pACYC177, ΔramRΔ36 (ΔramRΔompK36 mutant)
[33] = SHV-12 on pACYC177, WT (NVT1001), read-out: MIC
[34] = SHV-12 on pACYC177, Δ35 (ΔompK35 mutant)
[35] = SHV-12 on pACYC177, Δ35/36 (ΔompK35/36 mutant)
[36] = SHV-12 on pACYC177, Δ36 (ΔompK36 mutant)
[37] = SHV-12 on pACYC177, ΔramR mutant
[38] = SHV-12 on pACYC177, ΔramRΔ35 (ΔramRΔompK35 mutant)
[39] = SHV-12 on pACYC177, ΔramRΔ35/36 (ΔramRΔompK35/36 mutant)
[40] = SHV-12 on pACYC177, ΔramRΔ36 (ΔramRΔompK36 mutant)
[41] = no supplemental plasmid, WT (NVT1001), read-out: MIC
[42] = no supplemental plasmid, Δ35 (ΔompK35 mutant)
[43] = no supplemental plasmid, Δ35/36 (ΔompK35/36 mutant)
[44] = no supplemental plasmid, Δ36 (ΔompK36 mutant)
[45] = no supplemental plasmid, ΔramR mutant
[46] = no supplemental plasmid, ΔramRΔ35 (ΔramRΔompK35 mutant)
[47] = no supplemental plasmid, ΔramRΔ35/36 (ΔramRΔompK35/36 mutant)
[48] = no supplemental plasmid, ΔramRΔ36 (ΔramRΔompK36 mutant)

## CC(=O)OCC1=C(C(=O)O)N2C(=O)[C@@H](NC(=O)Cc3cccs3)[C@H]2SC1 [Cephalothin]
[1]
  MIC: > 256 µg/mL
[2]
  MIC: > 256 µg/mL
[3]
  MIC: > 256 µg/mL
[4]
  MIC: > 256 µg/mL
[5]
  MIC: > 256 µg/mL
[6]
  MIC: > 256 µg/mL
[7]
  MIC: > 256 µg/mL
[8]
  MIC: > 256 µg/mL
[9]
  MIC: > 256 µg/mL
[10]
  MIC: > 256 µg/mL
[11]
  MIC: > 256 µg/mL
[12]
  MIC: > 256 µg/mL
[13]
  MIC: > 256 µg/mL
[14]
  MIC: > 256 µg/mL
[15]
  MIC: > 256 µg/mL
[16]
  MIC: > 256 µg/mL
[17]
  MIC: > 256 µg/mL
[18]
  MIC: > 256 µg/mL
[19]
  MIC: > 256 µg/mL
[20]
  MIC: > 256 µg/mL
[21]
  MIC: > 256 µg/mL
[22]
  MIC: > 256 µg/mL
[23]
  MIC: > 256 µg/mL
[24]
  MIC: > 256 µg/mL
[25]
  MIC: > 256 µg/mL
[26]
  MIC: > 256 µg/mL
[27]
  MIC: > 256 µg/mL
[28]
  MIC: > 256 µg/mL
[29]
  MIC: > 256 µg/mL
[30]
  MIC: > 256 µg/mL
[31]
  MIC: > 256 µg/mL
[32]
  MIC: > 256 µg/mL
[33]
  MIC: > 256 µg/mL
[34]
  MIC: > 256 µg/mL
[35]
  MIC: > 256 µg/mL
[36]
  MIC: > 256 µg/mL
[37]
  MIC: > 256 µg/mL
[38]
  MIC: > 256 µg/mL
[39]
  MIC: > 256 µg/mL
[40]
  MIC: > 256 µg/mL
[41]
  MIC: 8 µg/mL
[42]
  MIC: 8 µg/mL
[43]
  MIC: 256 µg/mL
[44]
  MIC: 16 µg/mL
[45]
  MIC: 64 µg/mL
[46]
  MIC: 64 µg/mL
[47]
  MIC: > 256 µg/mL
[48]
  MIC: > 256 µg/mL

## C[C@@H](O)[C@H]1C(=O)N2C(C(=O)O)=C(S[C@@H]3CN[C@H](C(=O)N(C)C)C3)[C@H](C)[C@H]12 [Meropenem]
[1]
  MIC: 0.25 µg/mL
[2]
  MIC: 0.25 µg/mL
[3]
  MIC: 16 µg/mL
[4]
  MIC: 2 µg/mL
[5]
  MIC: 0.25 µg/mL
[6]
  MIC: 0.25 µg/mL
[7]
  MIC: 8 µg/mL
[8]
  MIC: 8 µg/mL
[9]
  MIC: 0.06 µg/mL
[10]
  MIC: 0.125 µg/mL
[11]
  MIC: 2 µg/mL
[12]
  MIC: 0.125 µg/mL
[13]
  MIC: 0.125 µg/mL
[14]
  MIC: 0.125 µg/mL
[15]
  MIC: 2 µg/mL
[16]
  MIC: 2 µg/mL
[17]
  MIC: 0.25 µg/mL
[18]
  MIC: 0.25 µg/mL
[19]
  MIC: 8 µg/mL
[20]
  MIC: 0.25 µg/mL
[21]
  MIC: 0.25 µg/mL
[22]
  MIC: 0.25 µg/mL
[23]
  MIC: 4 µg/mL
[24]
  MIC: 4 µg/mL
[25]
  MIC: 0.25 µg/mL
[26]
  MIC: 0.25 µg/mL
[27]
  MIC: 8 µg/mL
[28]
  MIC: 0.25 µg/mL
[29]
  MIC: 0.125 µg/mL
[30]
  MIC: 0.25 µg/mL
[31]
  MIC: 4 µg/mL
[32]
  MIC: 8 µg/mL
[33]
  MIC: 0.125 µg/mL
[34]
  MIC: 0.125 µg/mL
[35]
  MIC: 1 µg/mL
[36]
  MIC: 0.125 µg/mL
[37]
  MIC: 0.06 µg/mL
[38]
  MIC: 0.06 µg/mL
[39]
  MIC: 2 µg/mL
[40]
  MIC: 1 µg/mL
[41]
  MIC: 0.06 µg/mL
[42]
  MIC: 0.06 µg/mL
[43]
  MIC: 0.5 µg/mL
[44]
  MIC: 0.06 µg/mL
[45]
  MIC: 0.06 µg/mL
[46]
  MIC: 0.06 µg/mL
[47]
  MIC: 2 µg/mL
[48]
  MIC: 2 µg/mL
